Reference: ChEMBL document CHEMBL1201862, “PubChem BioAssay data set” (2004)
Activity calls are given as the source filed them.

Columns and labels:
[1] = target: T1, High affinity choline transporter 1 (Homo sapiens, UniProt Q9GZV3); experiment: human choline transporter blockers, potency – cell-based, 5-point CRC, membrane potential dye, dose response (AID 504840); assay type: functional
T1 sequence (Q9GZV3 whole entry): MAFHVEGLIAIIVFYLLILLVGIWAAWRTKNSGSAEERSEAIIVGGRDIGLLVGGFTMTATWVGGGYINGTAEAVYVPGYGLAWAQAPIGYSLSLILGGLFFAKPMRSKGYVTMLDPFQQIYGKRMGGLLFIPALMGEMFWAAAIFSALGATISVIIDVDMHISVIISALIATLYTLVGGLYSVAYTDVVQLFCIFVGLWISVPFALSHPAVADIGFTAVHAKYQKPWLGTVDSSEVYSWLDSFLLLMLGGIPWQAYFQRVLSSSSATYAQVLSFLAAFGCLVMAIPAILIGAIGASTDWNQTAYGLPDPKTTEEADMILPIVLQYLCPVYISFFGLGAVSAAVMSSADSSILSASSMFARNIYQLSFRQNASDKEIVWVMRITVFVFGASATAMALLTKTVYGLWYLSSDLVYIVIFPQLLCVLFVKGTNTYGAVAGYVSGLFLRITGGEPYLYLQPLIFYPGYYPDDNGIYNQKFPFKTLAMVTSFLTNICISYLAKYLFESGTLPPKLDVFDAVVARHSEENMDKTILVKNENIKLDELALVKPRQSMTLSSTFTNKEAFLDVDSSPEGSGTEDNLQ

[2] = viability loss in THP-1 monocytes – THP-1 cells, cytotoxicity control for Vif-APOBEC3G degradation inhibitor project, dose response (AID 1117359); assay type: functional; details: THP-1
[3] = target: Cytochrome P450 3A4 (Homo sapiens, UniProt P08684); details: Potency;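 also: confirmatory qHTS run detecting inhibitors and substrates of CYP3A4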
Sequence of Cytochrome P450 3A4 (P08684 whole entry): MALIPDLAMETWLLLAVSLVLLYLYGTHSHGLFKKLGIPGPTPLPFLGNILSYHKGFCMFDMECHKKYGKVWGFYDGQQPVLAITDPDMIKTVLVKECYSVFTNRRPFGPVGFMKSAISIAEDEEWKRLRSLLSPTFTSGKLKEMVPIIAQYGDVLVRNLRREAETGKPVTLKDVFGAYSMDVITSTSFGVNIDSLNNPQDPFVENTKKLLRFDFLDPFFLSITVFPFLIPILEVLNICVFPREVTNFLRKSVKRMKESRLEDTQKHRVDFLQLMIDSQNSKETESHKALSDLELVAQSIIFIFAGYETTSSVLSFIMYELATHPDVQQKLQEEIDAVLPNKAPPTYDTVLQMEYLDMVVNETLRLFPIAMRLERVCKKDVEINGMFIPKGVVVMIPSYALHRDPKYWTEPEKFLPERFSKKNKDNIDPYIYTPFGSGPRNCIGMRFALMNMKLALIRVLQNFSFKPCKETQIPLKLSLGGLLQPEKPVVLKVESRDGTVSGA

[4] = cells; assay type: functional, cell-based
[5] = cells; assay type: functional, cell-based; remark: listed apart in the source
[6] = THP-1 cell cytotoxicity, dose response, cytotoxicity control for non-replicating M. tuberculosis project (AID 489025); assay type: functional
[7] = HepG2 cell cytotoxicity, dose response, cytotoxicity control for non-replicating M. tuberculosis project (AID 489018); assay type: functional; details: Mycobacterium tuberculosis
[8] = Vero E6 cell cytotoxicity, dose response, cytotoxicity control for non-replicating M. tuberculosis project, secondary assay (AID 492998); assay type: functional, VeroE6; details: Vero C1008
[9] = cells; assay type: functional
[10] = tested on: INS1; experiment: INS-1E survival protection against cytokine death – cell-based, luminescence, retest, dose response (AID 449756); assay type: functional; details: Rattus norvegicus;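 also: cell death triggered by IL-1 beta plus TNF-alpha plus IFN-gamma mixture; protective hits raise ATP signal compared with cytokine alone wells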
[11] = tested on: Streptococcus sp. 'group A'; experiment: Streptococcus pyogenes SK(-)GAS viability under kanamycin – luminescence, BacTiterGlo, confirmation, counter-screen for streptokinase expression inhibitor project, dose response (AID 1900); assay type: functional, organism-based
[12] = tested on: Streptococcus; experiment: GAS UMAA2166 growth inhibition – luminescence, BacTiterGlo, counter-screen for streptokinase expression inhibitor project, dose response (AID 1915); assay type: functional, organism-based;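 also: potency for reduction of bacterial viability or growth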
[13] = target: T2, Short transient receptor potential channel 4 (Mus musculus, UniProt Q9QUQ5); experiment: calcium entry via TRPC4 opening agents – cell-based, HEK293 TRPC4/mu-opioid, Fluo-4 calcium, dose response (AID 434937); assay type: functional
T2 sequence (Q9QUQ5 whole entry): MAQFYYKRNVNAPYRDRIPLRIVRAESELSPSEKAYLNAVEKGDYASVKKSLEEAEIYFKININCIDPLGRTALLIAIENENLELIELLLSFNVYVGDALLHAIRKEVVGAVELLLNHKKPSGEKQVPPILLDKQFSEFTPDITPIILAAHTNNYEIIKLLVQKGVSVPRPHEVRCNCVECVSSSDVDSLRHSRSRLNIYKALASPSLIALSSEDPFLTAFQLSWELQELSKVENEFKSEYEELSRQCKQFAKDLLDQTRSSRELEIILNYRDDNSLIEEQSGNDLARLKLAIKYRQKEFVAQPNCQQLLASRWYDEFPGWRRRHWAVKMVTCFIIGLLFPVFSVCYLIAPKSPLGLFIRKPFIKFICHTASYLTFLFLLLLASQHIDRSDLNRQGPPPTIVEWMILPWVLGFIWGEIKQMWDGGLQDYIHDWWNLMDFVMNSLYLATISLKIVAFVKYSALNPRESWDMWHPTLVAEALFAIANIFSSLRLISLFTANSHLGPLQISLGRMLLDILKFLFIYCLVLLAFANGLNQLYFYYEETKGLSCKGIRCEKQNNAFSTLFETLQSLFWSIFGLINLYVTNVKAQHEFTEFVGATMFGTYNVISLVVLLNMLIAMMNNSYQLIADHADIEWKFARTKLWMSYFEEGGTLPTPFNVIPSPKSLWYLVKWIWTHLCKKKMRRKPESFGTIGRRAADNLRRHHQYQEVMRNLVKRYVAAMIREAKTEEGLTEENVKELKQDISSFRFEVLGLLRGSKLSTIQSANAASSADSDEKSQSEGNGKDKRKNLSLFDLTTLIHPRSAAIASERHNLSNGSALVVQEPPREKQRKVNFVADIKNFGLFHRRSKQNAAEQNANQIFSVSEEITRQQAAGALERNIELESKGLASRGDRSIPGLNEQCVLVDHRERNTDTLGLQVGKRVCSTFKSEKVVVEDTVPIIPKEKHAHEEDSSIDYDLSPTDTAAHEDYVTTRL

[14] = target: T3, Aminopeptidase N (Plasmodium falciparum FcB1/Columbia, UniProt O96935); experiment: malaria alanyl aminopeptidase activity blockers – biochemical, fluorogenic H-Leu-NHMec substrate, 1536-well (AID 1445); design: species or system Plasmodium falciparum 3D7, 3D7
T3 sequence (O96935 whole entry): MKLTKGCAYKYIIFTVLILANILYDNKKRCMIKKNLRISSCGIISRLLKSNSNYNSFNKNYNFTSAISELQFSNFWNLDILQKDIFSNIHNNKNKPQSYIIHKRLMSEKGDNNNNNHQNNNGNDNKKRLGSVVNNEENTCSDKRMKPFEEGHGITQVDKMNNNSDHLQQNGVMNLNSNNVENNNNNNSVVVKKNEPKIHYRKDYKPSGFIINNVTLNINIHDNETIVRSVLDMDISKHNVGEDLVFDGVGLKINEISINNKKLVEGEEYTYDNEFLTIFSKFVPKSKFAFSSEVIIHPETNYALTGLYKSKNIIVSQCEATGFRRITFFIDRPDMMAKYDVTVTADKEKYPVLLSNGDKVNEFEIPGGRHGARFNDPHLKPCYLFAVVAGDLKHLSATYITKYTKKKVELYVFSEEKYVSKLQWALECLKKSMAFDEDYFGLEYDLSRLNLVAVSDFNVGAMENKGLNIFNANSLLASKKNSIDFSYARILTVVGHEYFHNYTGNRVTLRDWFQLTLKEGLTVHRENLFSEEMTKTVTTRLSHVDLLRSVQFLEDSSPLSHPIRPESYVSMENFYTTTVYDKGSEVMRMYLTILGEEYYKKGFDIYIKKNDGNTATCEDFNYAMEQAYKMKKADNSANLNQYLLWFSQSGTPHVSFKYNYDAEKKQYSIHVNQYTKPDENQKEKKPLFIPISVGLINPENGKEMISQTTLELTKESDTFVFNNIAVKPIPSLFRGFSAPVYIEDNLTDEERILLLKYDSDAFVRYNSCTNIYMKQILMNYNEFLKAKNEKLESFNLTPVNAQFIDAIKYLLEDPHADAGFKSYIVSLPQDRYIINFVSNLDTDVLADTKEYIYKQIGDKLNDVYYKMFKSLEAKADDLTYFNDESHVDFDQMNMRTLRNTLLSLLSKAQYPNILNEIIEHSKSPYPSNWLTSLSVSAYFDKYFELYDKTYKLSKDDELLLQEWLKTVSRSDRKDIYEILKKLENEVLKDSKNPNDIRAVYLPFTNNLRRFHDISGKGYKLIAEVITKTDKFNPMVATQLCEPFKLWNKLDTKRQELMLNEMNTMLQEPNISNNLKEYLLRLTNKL

[15] = blockers of bursicon-stimulated LGR2 cAMP reporter – cell-based, HEK293, CRE-luciferase reporter, cherry pick, set 2, dose response (AID 743343); assay type: functional;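 also: transfected cells were stimulated with diluted bursicon conditioned medium after compound addition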
[16] = target: Nonstructural protein 1 (Influenza A virus, UniProt Q194T2); assay type: functional, Influenza A virus (A/California/07/2009(H1N1))
Sequence of Nonstructural protein 1 (Q194T2 whole entry): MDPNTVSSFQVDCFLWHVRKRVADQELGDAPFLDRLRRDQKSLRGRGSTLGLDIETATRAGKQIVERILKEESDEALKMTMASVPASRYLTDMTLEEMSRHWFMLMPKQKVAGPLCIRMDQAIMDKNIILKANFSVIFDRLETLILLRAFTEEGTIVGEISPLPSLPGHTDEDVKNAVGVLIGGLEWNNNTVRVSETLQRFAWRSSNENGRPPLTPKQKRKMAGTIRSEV

[17] = target: T4, Fatty acid synthase (Homo sapiens, UniProt P49327); experiment: inhibition of human FAS-TE enzyme activity – biochemical, endpoint fluorescence intensity, uHTS hits, dose response (AID 624327); assay type: functional;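 also: fluorescence from hydrolysis of an O-methyl fluorescein acyl ester substrate by the enzyme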
T4 sequence (P49327 whole entry): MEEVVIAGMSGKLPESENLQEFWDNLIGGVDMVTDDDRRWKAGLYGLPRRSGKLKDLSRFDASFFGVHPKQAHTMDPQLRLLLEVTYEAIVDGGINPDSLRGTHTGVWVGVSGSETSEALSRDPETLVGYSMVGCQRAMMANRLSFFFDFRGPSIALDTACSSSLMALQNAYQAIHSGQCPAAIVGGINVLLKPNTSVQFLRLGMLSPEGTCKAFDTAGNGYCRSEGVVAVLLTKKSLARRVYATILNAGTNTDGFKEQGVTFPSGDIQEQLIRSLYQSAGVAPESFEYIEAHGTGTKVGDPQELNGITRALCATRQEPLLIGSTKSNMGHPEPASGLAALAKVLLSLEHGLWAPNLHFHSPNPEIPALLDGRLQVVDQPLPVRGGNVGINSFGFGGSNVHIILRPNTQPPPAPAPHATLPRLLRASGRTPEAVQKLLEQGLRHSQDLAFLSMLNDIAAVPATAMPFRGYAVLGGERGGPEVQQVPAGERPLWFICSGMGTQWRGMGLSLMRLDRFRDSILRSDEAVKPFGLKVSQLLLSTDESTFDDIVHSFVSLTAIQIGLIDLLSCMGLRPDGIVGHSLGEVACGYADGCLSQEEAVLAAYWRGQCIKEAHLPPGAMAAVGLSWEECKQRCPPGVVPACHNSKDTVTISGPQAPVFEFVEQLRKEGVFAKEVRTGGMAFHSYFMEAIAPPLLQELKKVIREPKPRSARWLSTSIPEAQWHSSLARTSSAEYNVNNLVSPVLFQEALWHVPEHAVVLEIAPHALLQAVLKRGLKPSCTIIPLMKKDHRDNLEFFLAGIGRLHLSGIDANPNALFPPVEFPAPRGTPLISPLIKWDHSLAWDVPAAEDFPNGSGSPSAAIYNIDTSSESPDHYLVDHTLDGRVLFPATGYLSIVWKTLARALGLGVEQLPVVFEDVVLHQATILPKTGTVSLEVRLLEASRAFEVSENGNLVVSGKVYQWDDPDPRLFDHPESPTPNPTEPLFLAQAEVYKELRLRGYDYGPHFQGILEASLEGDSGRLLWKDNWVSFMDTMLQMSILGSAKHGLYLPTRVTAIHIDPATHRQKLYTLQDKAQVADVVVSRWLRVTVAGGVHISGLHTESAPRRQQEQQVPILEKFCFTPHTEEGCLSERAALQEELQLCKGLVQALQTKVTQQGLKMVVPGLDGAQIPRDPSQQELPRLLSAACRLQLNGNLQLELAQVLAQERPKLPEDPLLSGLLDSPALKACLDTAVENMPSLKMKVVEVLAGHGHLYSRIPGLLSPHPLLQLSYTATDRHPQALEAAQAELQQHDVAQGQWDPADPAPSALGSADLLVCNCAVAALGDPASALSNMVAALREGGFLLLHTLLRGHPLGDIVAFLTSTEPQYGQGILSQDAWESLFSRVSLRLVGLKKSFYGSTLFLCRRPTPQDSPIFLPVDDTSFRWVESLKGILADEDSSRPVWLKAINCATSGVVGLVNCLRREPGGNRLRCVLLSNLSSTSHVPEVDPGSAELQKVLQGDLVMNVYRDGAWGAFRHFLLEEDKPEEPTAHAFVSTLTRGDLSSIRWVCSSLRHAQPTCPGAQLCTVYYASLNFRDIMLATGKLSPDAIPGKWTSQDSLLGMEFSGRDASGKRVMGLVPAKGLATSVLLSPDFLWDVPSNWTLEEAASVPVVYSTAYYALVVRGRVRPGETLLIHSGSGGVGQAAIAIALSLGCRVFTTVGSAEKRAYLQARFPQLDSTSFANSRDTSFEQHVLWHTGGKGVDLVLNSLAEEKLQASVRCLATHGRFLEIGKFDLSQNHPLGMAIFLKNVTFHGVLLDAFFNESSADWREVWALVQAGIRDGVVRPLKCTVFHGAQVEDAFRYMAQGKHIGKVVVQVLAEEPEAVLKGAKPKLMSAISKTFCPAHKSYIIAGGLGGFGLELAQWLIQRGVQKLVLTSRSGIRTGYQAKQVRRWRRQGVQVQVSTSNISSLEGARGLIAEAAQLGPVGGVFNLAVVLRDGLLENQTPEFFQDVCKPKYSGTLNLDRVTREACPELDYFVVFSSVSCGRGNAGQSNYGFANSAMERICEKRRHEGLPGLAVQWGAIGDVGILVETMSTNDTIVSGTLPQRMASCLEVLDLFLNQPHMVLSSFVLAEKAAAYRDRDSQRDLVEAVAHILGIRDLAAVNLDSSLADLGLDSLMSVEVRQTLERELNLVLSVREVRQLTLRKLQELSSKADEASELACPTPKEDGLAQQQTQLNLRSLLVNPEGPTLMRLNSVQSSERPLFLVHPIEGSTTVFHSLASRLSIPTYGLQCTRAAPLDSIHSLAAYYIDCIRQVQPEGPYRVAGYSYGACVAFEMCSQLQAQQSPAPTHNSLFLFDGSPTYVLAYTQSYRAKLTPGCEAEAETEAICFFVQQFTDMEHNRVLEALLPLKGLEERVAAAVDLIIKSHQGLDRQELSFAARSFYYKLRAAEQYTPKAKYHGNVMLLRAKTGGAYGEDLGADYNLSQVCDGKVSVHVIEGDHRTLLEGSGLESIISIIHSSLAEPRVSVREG

[18] = target: T4, Fatty acid synthase; experiment: inhibition of human FAS-TE enzyme activity – biochemical, kinetic fluorescence intensity, dose response (AID 624326); assay type: functional;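 also: rate of fluorescence rise from hydrolysis of a fluorogenic O-methyl fluorescein ester substrate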
[19] = target: Paired box protein Pax-8 (Homo sapiens, UniProt Q06710); experiment: PAX8 transcriptional activity inhibition in RMG-I – RMG-I cells, luciferase, cherry-pick, dose response (AID 687027); assay type: functional, cell-based;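 also: luciferase reporter driven by Pax8 target thyroperoxidase promoter measured by SteadyGlo luminescence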
Sequence of Paired box protein Pax-8 (Q06710 whole entry): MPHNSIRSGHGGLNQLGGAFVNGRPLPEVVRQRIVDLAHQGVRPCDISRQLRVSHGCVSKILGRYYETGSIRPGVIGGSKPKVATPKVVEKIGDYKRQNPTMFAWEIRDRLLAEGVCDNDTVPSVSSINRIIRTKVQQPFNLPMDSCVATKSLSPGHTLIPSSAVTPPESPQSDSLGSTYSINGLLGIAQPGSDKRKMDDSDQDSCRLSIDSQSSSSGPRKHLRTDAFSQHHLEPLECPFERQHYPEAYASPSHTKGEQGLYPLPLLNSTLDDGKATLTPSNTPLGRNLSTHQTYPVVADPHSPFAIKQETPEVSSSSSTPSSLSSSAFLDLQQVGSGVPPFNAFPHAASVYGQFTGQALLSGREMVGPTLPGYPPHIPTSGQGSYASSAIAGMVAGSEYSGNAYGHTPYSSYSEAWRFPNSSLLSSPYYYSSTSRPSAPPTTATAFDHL

[20] = OVCAR8 cell viability loss – plate reader, dry powder samples, PAX8 project, dose response (AID 743197); assay type: functional, cell-based; details: OVCAR-8

## Cc1ccc(-n2cc(CN3CCN(Cc4nccn4C)CC3)c(-c3cccc(C)c3)n2)cc1
[1]
  IC50: 10.5 µM (active)

## O=C(CN1C(=O)S/C(=C\c2cccc(Cl)c2)C1=O)NCCCn1ccnc1
[1]
  IC50: 20.9 µM (active)

## CCCC[C@@H]1CN=C(S)N1CCc1cccc2ccccc12
[2]
  CC50: > 40 µM (active)

## CCCn1c(C)nc2c(N(CCOC)CCOC)nc(C)nc21
[3]
  AC50: 15.8 µM (inconclusive)

## Oc1ccccc1/C=N/Nc1ncc(Br)cn1
[4]
  EC50: 7.46 µM (active)
[5]
  EC50: 23 µM (active)
[6]
  CC50: 6.62 µM (active)
[7]
  CC50: > 20 µM (active)
[8]
  CC50: 3.26 µM (active)
[9]
  IC50: 7.9 µM (active)
[10]
  AC50: 2.77 µM (active)

## COc1ccccc1C(=O)NNC(=S)NC(=O)c1sc2ccccc2c1Cl
[11]
  EC50: 0.072 µM (active)
[12]
  EC50: 0.878 µM (active)
[13]
  EC50: 5.31 µM (active)
[1]
  IC50: 14.5 µM (active)

## COc1c2c(c(CC=C(C)C)c3oc(=O)c(-c4ccc(O)cc4)c(O)c13)OC(C)(C)C=C2 [LONCHOCARPIC ACID]
[3]
  AC50: 12.6 µM (inconclusive)

## Cc1cccc(C(=O)NC2CCN(C(=S)NCc3ccco3)CC2)c1
[14]
  IC50: 113 µM (active)

## O=S1(=O)CCOC[C@H](CC2CCCCC2)N1Cc1ccccc1F
[15]
  AC50: 53.7 µM (active)

## O=C(Cn1cnc([N+](=O)[O-])n1)N/N=C/c1cc(Cl)ccc1O
[14]
  IC50: 13.3 µM (active)
[4]
  EC50: 14.5 µM (active)
[5]
  EC50: > 350 µM (not active)
[16]
  IC50: 12.3 µM (active)
[17]
  IC50: 1.22 µM (active)
[18]
  IC50: 2.94 µM (active)

## COCCNC(=O)C1(CC(C)C)C=CCN1C(=O)c1ccccc1 (stereo not drawn)
[3]
  AC50: 20 µM (inconclusive)

## CCCN1[C@H](C(=O)N2CCOCC2)[C@@H](CO)[C@@H]2Cn3c(ccc(/C=C/c4ccccc4)c3=O)[C@@H]21
[19]
  AC50: 48.2 µM (active)
[20]
  AC50: > 70 µM (inactive)

## CCCOc1ccc(C(CC(=O)O)NC(=O)c2sc3ccccc3c2Cl)cc1 (stereo not drawn)
[1]
  IC50: 7.59 µM (active)
